{"source": "patent US4576951A", "about": "“Proglumide, pharmaceutical preparations and compositions including it for use in human pain relief” (priority 1983, dated 1986)", "key": {"[1]": {"test": "Randall-Selitto test: analgesia produced by opiates", "format": "in vivo, rats", "conditions": "for t (vs controls): Student t", "description": "Analgesic activity in the Randall-Selitto test\nThe method is that described by Winters et al (J. Pharmacol. Exp. Ther. 150, 165 (1965). Groups of five female rats having an average weight of about 100 g and which have not been fasting are used. A 20% saline solution of yeast is administered into the sub-plantar region of the right hind leg.\nThe compounds to be tested are administered s.c. 2 hours after the injection of inflammatory agent 0.5 hours after the administration of the drugs, the pain threshold is determined by measuring the pressure needed to induce a flight reaction in the animal. The results obtained are given in Table No. 3 which records the groups treated and the doses administered, the pain threshold expressed as a pressure exerted in mmHg to cause the pain stimulus (average±S.E.) and a statistical evaluation of the results of the various treated groups by the Student \"t\" test."}, "[2]": {"format": "in vivo, rats", "description": "The method is that described by Harris et al. (J. Pharmcol. Exp. Ther. 143 (1964) 141-148).\nMale rats are used which have a weight of about 150-200 g and which have not been fasting. A point is chosen on the tail and this is irradiated by a heat source (75° C.) and the time (in seconds) for which the animal remains without moving its tail is measured.\nA maximum period of time under the heat source of 8 seconds is chosen after which the animal is, in any case, removed in order to avoid tissue damage. The measurement is effected before (controls) and after treatment with the drugs. […] The percentage variation is calculated for each individual animal by the following formula: [formula] (time measurements are in seconds)\nThe measurements are carried out 10, 20, 30, 45, 60 and 90 minutes after treatment with the analgesics."}, "in vivo": {"test": "in vivo", "conditions": "mouse, sc", "description": "The drug (or drugs) under examination was administered sub-cutaneously. The animals were kept under observation for 15 days after the administration.\nTen animals were used for each dose."}, "[3]": {"test": "Hot plate test: potentiation of analgesic activity of opiates", "format": "in vivo, rats", "conditions": "morphine 2.5 or methadone 1 mg/kg s.c. alone", "description": "The method is that described by Eddy et al. (J. Pharmac. Exp. Therm. 107, 385 (1953)).\nGroups of five male rats having a weight of about 150 g and which have not been fasting are used.\nThe animals are placed on a metal plate which is on the bottom of a transparent cylinder heated to 55°±1° C. by an azeotropic boiling mixture (1:1 acetone-ethyl formate). The time which passes between the moment at which the animal is placed on the hot plate and the moment at which it licks its feet or tries to jump out of the cylinder is defined as the reaction time. The control reaction time is measured 10 and 5 minutes before the administration of the drugs and 10, 20, 30, 45, 60, 90 minutes afterwards. The animals are left on the plate for a maximum period of 30 seconds. The response to the administration of the product is considered positive if at least a doubling of the normal reaction time is seen. The results obtained are given in Table 2 which records the groups treated, the doses administered and the stay times on the plate expressed as the number of positive responses over the number treated."}, "[4]": {"format": "in vivo, rats", "conditions": "morphine 5 mg/kg i.p. repeated", "description": "Activity of proglumide as an antagonist to the tolerance induced by opiates\nGroups of five male rats having a weight of about 200-250 g were used.\nThe determination of the pain threshold was effected 1, 3, 6, 9 and 12 hours after the first treatment by the Tail Flick test.\nThe data given in Table 5 indicate the percentage variations in the latency (appearance of pain) before and after treatment with the drugs."}, "[5]": {"test": "Potentiation of analgesic effect of enkephalinamide (DALA) i.c.v. (Tail Flick test)", "format": "in vivo, rats", "conditions": "alone i.c.v.: proglumide 1 or DALA 10 μg/kg", "description": "Potentiation of the analgesic activities of enkephalins induced by proglumide\nIn order to check one of the possible mechanisms for the action of proglumide, that is its possible inhibition of the enzymatic degradation of endogenous enkephalins, the following experiment was carried out:\nA cannula was implanted in the right lateral ventricle of male rats having a weight of 150-200 g (groups of five animals were used) in order to allow the intracerebroventricular (I.C.V.) administration of drugs according to the method of Noble et al (Life Science 6, (1970) 281-291). […]"}, "[6]": {"conditions": "higher dose alone s.c.: morphine 2, propoxyphene 25, pentazocine 6 mg/kg"}, "[7]": {"conditions": "lower dose alone s.c.: morphine 0.5, propoxyphene 7.5, pentazocine 2 mg/kg"}}, "note": "Like-named read-outs stand apart in the source and are kept apart here.", "data": [{"compound": "CCC(=O)O[C@](Cc1ccccc1)(c1ccccc1)[C@H](C)CN(C)C", "note": "[Dextropropoxyphene]", "values": [{"measurement": "t (vs controls)", "setting": "[1]; [6]", "value": 3.71}, {"measurement": "t (vs controls)", "setting": "[1]; [7]", "value": 3.34}, {"measurement": "P (vs controls)", "setting": "[1]; [6]", "value": "< 0.01"}, {"measurement": "Pain threshold (mmHg) M ± S.E.", "setting": "[1]; [6]", "value": "50.7 ± 10.02", "unit": "mmHg"}, {"measurement": "P (vs controls)", "setting": "[1]; [7]", "value": "< 0.05"}, {"measurement": "Pain threshold (mmHg) M ± S.E.", "setting": "[1]; [7]", "value": "37.5 ± 7.12", "unit": "mmHg"}, {"measurement": "X, potency ratio with respect to morphine = 1", "setting": "[2]; rat, in vivo", "value": 1}, {"measurement": "average percentage variation in latency M (1-90') ± S.E.", "setting": "[2]; rat, in vivo", "value": "33.48 ± 7.16"}]}, {"compound": "CCC(=O)C(CC(C)N(C)C)(c1ccccc1)c1ccccc1", "note": "(centres unmarked) [Methadone]", "values": [{"measurement": "LD50 at 360 h", "setting": "in vivo", "value": 53.5, "unit": "mg/kg"}, {"measurement": "positive responses / treated", "setting": "[3]; 10 min", "value": "1/5"}, {"measurement": "positive responses / treated", "setting": "[3]; 20 min", "value": "2/5"}, {"measurement": "positive responses / treated", "setting": "[3]; 30 min", "value": "1/5"}, {"measurement": "positive responses / treated", "setting": "[3]; 45 min", "value": "2/5"}, {"measurement": "positive responses / treated", "setting": "[3]; 60 min", "value": "1/5"}, {"measurement": "positive responses / treated", "setting": "[3]; 90 min", "value": "1/5"}, {"measurement": "A* = Tot. positive X/30", "setting": "[3]; total over 10-90 min", "value": 8}]}, {"compound": "CN1CC[C@]23c4c5ccc(O)c4O[C@H]2[C@@H](O)C=C[C@H]3[C@H]1C5", "note": "[Morphine]", "values": [{"measurement": "percentage variation in the latency", "setting": "[4]; 1 h", "value": "58.98 ± 16.3", "unit": "%"}, {"measurement": "percentage variation in the latency", "setting": "[4]; 3 h", "value": "67.58 ± 11.1", "unit": "%"}, {"measurement": "percentage variation in the latency", "setting": "[4]; 6 h", "value": "30.0 ± 15.3", "unit": "%"}, {"measurement": "percentage variation in the latency", "setting": "[4]; 9 h", "value": "38.62 ± 8.7", "unit": "%"}, {"measurement": "percentage variation in the latency", "setting": "[4]; 12 h", "value": "23.1 ± 8.6", "unit": "%"}, {"measurement": "percentage variation in the latency of the pain sensation", "setting": "[2]; 10 min, morphine 3 or dextropropoxyphene 6 mg/kg alone", "value": "29.0 ± 20.4", "unit": "%"}, {"measurement": "percentage variation in the latency of the pain sensation", "setting": "[2]; 20 min, morphine 3 or dextropropoxyphene 6 mg/kg alone", "value": "35.0 ± 9.4", "unit": "%"}, {"measurement": "percentage variation in the latency of the pain sensation", "setting": "[2]; 30 min, morphine 3 or dextropropoxyphene 6 mg/kg alone", "value": "71.4 ± 12.1", "unit": "%"}, {"measurement": "percentage variation in the latency of the pain sensation", "setting": "[2]; 45 min, morphine 3 or dextropropoxyphene 6 mg/kg alone", "value": "49.3 ± 21.3", "unit": "%"}, {"measurement": "percentage variation in the latency of the pain sensation", "setting": "[2]; 60 min, morphine 3 or dextropropoxyphene 6 mg/kg alone", "value": "38.8 ± 23.9", "unit": "%"}, {"measurement": "percentage variation in the latency of the pain sensation", "setting": "[2]; 90 min, morphine 3 or dextropropoxyphene 6 mg/kg alone", "value": "38.3 ± 20.1", "unit": "%"}, {"measurement": "average percentage variation in latency M (1-90') ± S.E.", "setting": "[2]; mean 1-90 min, morphine 3 or dextropropoxyphene 6 mg/kg alone", "value": "43.62 ± 7.37", "unit": "%"}]}, {"compound": "CC(C)=CCN1CCC2(C)c3cc(O)ccc3CC1C2C", "note": "(centres unmarked) [Pentazocine]", "values": [{"measurement": "t (vs controls)", "setting": "[1]; [6]", "value": 6.63}, {"measurement": "t (vs controls)", "setting": "[1]; [7]", "value": 2.50}, {"measurement": "P (vs controls)", "setting": "[1]; [6]", "value": "< 0.001"}, {"measurement": "Pain threshold (mmHg) M ± S.E.", "setting": "[1]; [6]", "value": "48.6 ± 4.93", "unit": "mmHg"}, {"measurement": "P (vs controls)", "setting": "[1]; [7]", "value": "< 0.05"}, {"measurement": "Pain threshold (mmHg) M ± S.E.", "setting": "[1]; [7]", "value": "27.9 ± 5.71", "unit": "mmHg"}]}, {"compound": "D-ala-methionine-enkephalinamide [DALA]", "values": [{"measurement": "% variation in the latency to pain", "setting": "[5]; 5 min", "value": "61.06 ± 11.8", "unit": "%"}, {"measurement": "% variation in the latency to pain", "setting": "[5]; 15 min", "value": "51.04 ± 4.6", "unit": "%"}, {"measurement": "% variation in the latency to pain", "setting": "[5]; 30 min", "value": "40.00 ± 9.04", "unit": "%"}, {"measurement": "% variation in the latency to pain", "setting": "[5]; 45 min", "value": "25.24 ± 7.7", "unit": "%"}, {"measurement": "% variation in the latency to pain", "setting": "[5]; 60 min", "value": "14.68 ± 9.2", "unit": "%"}, {"measurement": "% variation in the latency to pain", "setting": "[5]; 90 min", "value": "10.06 ± 8.3", "unit": "%"}, {"measurement": "Average (0 → 90) % variation in the latency to pain", "setting": "[5]", "value": "33.7 ± 8.3", "unit": "%"}]}]}
